Assay results from patent US20230278972A1, “SUBSTITUTED HALOALKYL SULFONANILIDE HERBICIDES” (FMC Corporation, priority 2020, published 2023).

Assays:
Format in all cases: in vivo
[1] = system: Ryegrass, Italian (Italian ryegrass, Lolium multiflorum); assay: Test A postemergence, Ryegrass, Italian; details: Postemergence, 0 to 100 scale (0 no effect, 100 complete control)
Procedure, shortened: (§1)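 Pots: loam soil/sand blend. Pre: directed soil spray at planting. Post: plants 2–10 cm, 1–2 leaf stage. Formulation: non-phytotoxic solvent + surfactant.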

[2] = system: Foxtail, Giant (giant foxtail, Setaria faberi); assay: Test A postemergence, Foxtail, Giant; details: Postemergence, 0 to 100 scale (0 no effect, 100 complete control)
Procedure, shortened: as §1

kochia (Bassia scoparia) [3] = assay: Test A postemergence, kochia; details: Postemergence, 0 to 100 scale (0 no effect, 100 complete control)
Procedure, shortened: as §1

[4] = system: barnyardgrass (Echinochloa crus-galli); assay: Test A postemergence, barnyardgrass; details: Postemergence, 0 to 100 scale (0 no effect, 100 complete control)
Procedure, shortened: (§2)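 After sowing into a sand-amended loam, pots for the preemergence test were treated by spraying directly onto soil. In parallel, seedlings at the one- to two-leaf stage and 2 to 10 cm tall were treated postemergence with the identical surfactant-containing formulation.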

[5] = system: pigweed (Amaranthus retroflexus); assay: Test A preemergence, pigweed; details: for Plant response rating, Pigweed: 0 to 100 scale (0 no effect, 100 complete control); for Pigweed plant response rating: 125 g ai/ha, visual injury on 0 to 100 scale (0 no effect, 100 complete control), approximately 10 days
Description: Seeds of plant species selected from barnyardgrass (Echinochloa crus-galli), kochia (Bassia scoparia), ragweed (common ragweed, Ambrosia artemisiifolia), Ryegrass, Italian (Italian ryegrass, Lolium multiflorum), Foxtail, Giant (giant foxtail, Setaria faberi), and pigweed (Amaranthus retroflexus) were planted into a blend of loam soil and sand and treated preemergence with a directed soil spray using test chemicals formulated in a non-phytotoxic solvent mixture which included a surfactant. At the same time, plants selected from these weed species and also wheat (Triticum aestivum), corn (Zea mays), blackgrass (Alopecurus myosuroides), and galium (catchweed bedstraw, Galium aparine) were planted in pots containing the same blend of loam soil and sand and treated with postemergence applications of test chemicals formulated in the same manner. Plants ranged in height from 2 to 10 cm and were in the one- to two-leaf stage for the postemergence treatment. […] A dash (-) response means no test result.

corn (Zea mays) = assay: Test A postemergence, corn; details: Postemergence, 0 to 100 scale (0 no effect, 100 complete control)
Procedure, shortened: as §1

[6] = system: pigweed (Amaranthus retroflexus); assay: Test A postemergence, pigweed; details: Postemergence, 0 to 100 scale (0 no effect, 100 complete control)
Procedure, shortened: as §1

[7] = system: barnyardgrass (Echinochloa crus-galli); assay: Test A preemergence, barnyardgrass; details: Preemergence; for Plant response rating, Barnyardgrass: 0 to 100 scale (0 no effect, 100 complete control)
Procedure, shortened: as §1

kochia (Bassia scoparia) [8] = assay: Test A preemergence, kochia; details: Preemergence; for Plant response rating, Kochia: 0 to 100 scale (0 no effect, 100 complete control); for Kochia plant response rating: 125 g ai/ha, visual injury on 0 to 100 scale (0 no effect, 100 complete control), approximately 10 days
Procedure, shortened: as §1

[9] = system: ragweed (common ragweed, Ambrosia artemisiifolia); assay: Test A postemergence, ragweed; details: Postemergence, 0 to 100 scale (0 no effect, 100 complete control)
Procedure, shortened: as §1

[10] = system: Ryegrass, Italian (Italian ryegrass, Lolium multiflorum); assay: Test A preemergence, Ryegrass, Italian; details: Preemergence; for Plant response rating, Ryegrass, Italian: 0 to 100 scale (0 no effect, 100 complete control); for Ryegrass, Italian plant response rating: 125 g ai/ha, visual injury on 0 to 100 scale (0 no effect, 100 complete control), approximately 10 days
Procedure, shortened: as §1

[11] = system: Foxtail, Giant (giant foxtail, Setaria faberi); assay: Test A preemergence, Foxtail, Giant; details: Preemergence; for Plant response rating, Foxtail, Giant: 0 to 100 scale (0 no effect, 100 complete control); for Foxtail, Giant plant response rating: 125 g ai/ha, visual injury on 0 to 100 scale (0 no effect, 100 complete control), approximately 10 days
Procedure, shortened: as §1

[12] = system: galium (catchweed bedstraw, Galium aparine); assay: Test A postemergence, galium; details: Postemergence, 0 to 100 scale (0 no effect, 100 complete control)
Procedure, shortened: as §2

[13] = system: wheat (Triticum aestivum); assay: Test A postemergence, wheat; details: Postemergence, 0 to 100 scale (0 no effect, 100 complete control)
Procedure, shortened: as §2

[14] = system: blackgrass (Alopecurus myosuroides); assay: Test A postemergence, blackgrass; details: Postemergence, 0 to 100 scale (0 no effect, 100 complete control)
Procedure, shortened: as §1

[15] = 1000 g ai/ha, visual injury, approx. 10 days
[16] = 125 g ai/ha, visual injury approx. 10 days
[17] = 500 g ai/ha, visual injury, approx. 10 days

Cc1cc(C)c(N(S(=O)(=O)C(F)(F)F)S(=O)(=O)C(F)(F)F)cc1C(=O)N1CCSCC1 [Compound 5]
Plant response rating, Ryegrass, Italian [1, 15]: 30 | Plant response rating, Foxtail, Giant [2, 15]: 90 | Plant response rating, Kochia (kochia (Bassia scoparia) [3]; [15]): 80 | Plant response rating, Barnyardgrass [4, 15]: 80 | Plant response rating, Pigweed ([5]; 1000 g ai/ha): 100 | Plant response rating, Corn (corn (Zea mays); [15]): 10 | Plant response rating, Pigweed [6, 15]: 80 | Plant response rating, Barnyardgrass ([7]; 1000 g ai/ha): 100 | Plant response rating, Kochia (kochia (Bassia scoparia) [8]; 1000 g ai/ha): 90 | Plant response rating, Ragweed [9, 15]: 80 | Plant response rating, Ryegrass, Italian ([10]; 1000 g ai/ha): 100 | Plant response rating, Foxtail, Giant ([11]; 1000 g ai/ha): 100 | Plant response rating, Galium [12, 15]: 90 | Plant response rating, Wheat [13, 15]: 60 | Plant response rating, Blackgrass [14, 15]: 0

Cc1cc(C)c(C(=O)N2CCSCC2)cc1NS(=O)(=O)C(F)(F)F [Compound 12]
Plant response rating, Ryegrass, Italian [1, 15]: 90 | Plant response rating, Foxtail, Giant [2, 15]: 90 | Plant response rating, Kochia (kochia (Bassia scoparia) [3]; [15]): 70 | Plant response rating, Barnyardgrass [4, 15]: 80 | Plant response rating, Pigweed ([5]; 1000 g ai/ha): 100 | Plant response rating, Corn (corn (Zea mays); [15]): 20 | Plant response rating, Pigweed [6, 15]: 80 | Plant response rating, Barnyardgrass ([7]; 1000 g ai/ha): 100 | Plant response rating, Kochia (kochia (Bassia scoparia) [8]; 1000 g ai/ha): 90 | Plant response rating, Ragweed [9, 15]: 60 | Plant response rating, Ryegrass, Italian ([10]; 1000 g ai/ha): 100 | Plant response rating, Foxtail, Giant ([11]; 1000 g ai/ha): 100 | Plant response rating, Galium [12, 15]: 90 | Plant response rating, Wheat [13, 15]: 60 | Plant response rating, Blackgrass [14, 15]: 30

Cc1cc(C2CC2)c(NS(=O)(=O)C(F)(F)F)cc1C(=O)N1CCOCC1 [Compound 13]
Plant response rating, Ryegrass, Italian [1, 16]: 0 | Plant response rating, Ryegrass, Italian [1, 17]: 0 | Plant response rating, Foxtail, Giant [2, 16]: 0 | Plant response rating, Foxtail, Giant [2, 17]: 10 | Plant response rating, Kochia (kochia (Bassia scoparia) [3]; [16]): 0 | Plant response rating, Kochia (kochia (Bassia scoparia) [3]; [17]): 10 | Plant response rating, Barnyardgrass [4, 16]: 0 | Plant response rating, Barnyardgrass [4, 17]: 40 | Pigweed plant response rating [5]: 20 | Plant response rating, Pigweed ([5]; 500 g ai/ha): 60 | Plant response rating, Corn (corn (Zea mays); [16]): 0 | Plant response rating, Corn (corn (Zea mays); [17]): 0 | Plant response rating, Pigweed [6, 16]: 0 | Plant response rating, Pigweed [6, 17]: 20 | Barnyardgrass plant response rating ([7]; 125 g ai/ha, visual injury on 0 to 100 scale (0 no effect, 100 complete control), approximately 10 days): 60 | Plant response rating, Barnyardgrass ([7]; 500 g ai/ha): 100 | Kochia plant response rating (kochia (Bassia scoparia) [8]): 20 | Plant response rating, Kochia (kochia (Bassia scoparia) [8]; 500 g ai/ha): 50 | Plant response rating, Ragweed [9, 16]: 10 | Plant response rating, Ragweed [9, 17]: 30 | Ryegrass, Italian plant response rating [10]: 20 | Plant response rating, Ryegrass, Italian ([10]; 500 g ai/ha): 30 | Foxtail, Giant plant response rating [11]: 0 | Plant response rating, Foxtail, Giant ([11]; 500 g ai/ha): 10 | Plant response rating, Galium [12, 16]: 20 | Plant response rating, Galium [12, 17]: 30 | Plant response rating, Wheat [13, 16]: 0 | Plant response rating, Wheat [13, 17]: 0 | Plant response rating, Blackgrass [14, 16]: 0 | Plant response rating, Blackgrass [14, 17]: 0

Cc1cc(Br)c(NS(=O)(=O)C(F)(F)F)cc1C(=O)N1CCOCC1 [Compound 14]
Plant response rating, Ryegrass, Italian [1, 16]: 0 | Plant response rating, Ryegrass, Italian [1, 17]: 30 | Plant response rating, Foxtail, Giant [2, 16]: 40 | Plant response rating, Foxtail, Giant [2, 17]: 70 | Plant response rating, Kochia (kochia (Bassia scoparia) [3]; [16]): 40 | Plant response rating, Kochia (kochia (Bassia scoparia) [3]; [17]): 70 | Plant response rating, Barnyardgrass [4, 16]: 40 | Plant response rating, Barnyardgrass [4, 17]: 80 | Pigweed plant response rating [5]: 80 | Plant response rating, Pigweed ([5]; 500 g ai/ha): 90 | Plant response rating, Corn (corn (Zea mays); [16]): 0 | Plant response rating, Corn (corn (Zea mays); [17]): 20 | Plant response rating, Pigweed [6, 16]: 60 | Plant response rating, Pigweed [6, 17]: 90 | Plant response rating, Barnyardgrass ([7]; 500 g ai/ha): 90 | Kochia plant response rating (kochia (Bassia scoparia) [8]): 70 | Plant response rating, Kochia (kochia (Bassia scoparia) [8]; 500 g ai/ha): 90 | Plant response rating, Ragweed [9, 16]: 60 | Plant response rating, Ragweed [9, 17]: 70 | Ryegrass, Italian plant response rating [10]: 60 | Plant response rating, Ryegrass, Italian ([10]; 500 g ai/ha): 100 | Foxtail, Giant plant response rating [11]: 70 | Plant response rating, Foxtail, Giant ([11]; 500 g ai/ha): 80 | Plant response rating, Galium [12, 16]: 70 | Plant response rating, Galium [12, 17]: 80 | Plant response rating, Wheat [13, 16]: 30 | Plant response rating, Wheat [13, 17]: 70 | Plant response rating, Blackgrass [14, 16]: 10 | Plant response rating, Blackgrass [14, 17]: 40
